Laboratory results from US20210401833A1 (IMBRIA PHARMACEUTICALS, INC., priority 2020, published 2021).
Converted amounts (≈) assume the structure as drawn. Like-named read-outs stand apart in the source and are kept apart here.

Columns and labels:
[1] = in vitro CaCo2 permeability; format: in vitro ADME; settings: human, Caco-2
CaCo2 = experiment: in vitro CaCo2 permeability; format: in vitro ADME
[2] = pH stability profile of a 1 mg/mL solution of CV-8972 at 23° C.; format: physicochemical; settings: for 1st order Kobs / % lost in 25 hrs / Amt. remaining / T5% / T10%: 1 mg/mL, 23° C.
Procedure: The pH stability profile is summarized and shown in Table 2 for a 1 mg/mL solution of CV-8972 at 23° C.
The hydrolysis proceeds via the first step shown in FIG. 1, as Nicotinic acid and CV-8814 are the only decomposition products generated. The optimal pH for solution stability appears to be around pH 5-5.1 for a 1 mg/mL solution with acid-catalyzed hydrolysis increasing at pH values less than 5.0 and base-catalyzed hydrolysis increasing above pH 5.0.

[3] = Phase 1 first-in-human study, single-dose MR part, safety and tolerability; format: in vivo
Procedure: The subjects received a single oral dose of 1 of 4 MR formulations of IMB-1018972 under fasted conditions (an overnight fast of at least 10 hours) on Days 1, 4, 7, and 10 in a fixed order that was the same for all subjects. The MR formulation of IMB-1018972 to be administered on Day 13 under fed conditions was 1 of the 4 MR formulations administered on Days 1, 4, 7, and 10 under fasted conditions.
(§1) AEs were recorded from (first) admission until completion of the follow-up visit. Any clinically significant observations in results of clinical laboratory, 12-lead ECGs, vital signs, or physical examinations were recorded as AEs.
(§2) A treatment-emergent AE (TEAE) was defined as any event not present prior to (the first) administration of the study drug or any event already present that worsened in either severity or frequency following exposure to the study drug.
(§3) The severity of the AEs was rated as mild, moderate, or severe; the relationship between the AEs and the study drug was indicated as none, unlikely, possibly, likely, or definitely. Adverse events assessed as possibly, likely, or definitely were considered related to the study drug; AEs assessed as none or unlikely were considered not related to the study drug.

[4] = Phase 1 first-in-human study, overall safety; format: in vivo; settings: after administration as the MR formulations
Procedure: Safety and tolerability were assessed through AEs, clinical laboratory, vital signs, ECGs, continuous cardiac monitoring (telemetry), and physical examination findings, and any other parameter that was relevant for safety assessment.

[5] = aqueous solubility of CV-8972; format: physicochemical; settings: aqueous solution, aqueous buffer
Description: FIG. 2 is graph of the aqueous solubility of CV-8972 as a function of pH generated via dynamic methods due to instability.

[6] = Phase 1 first-in-human study, combined single and multiple IMB-1018972 dose results (SAD, MAD, FE, MR), plasma and urine PK; settings: plasma of subjects that received IMB-1018972
Description: (§4) Data on the performance of the method and stability indicate that the sample results as reported are reliable.

[7] = solution stability (decomposition kinetics) in simulated GI media at 37° C. and 0.2 mg/mL, HPLC; format: physicochemical
Procedure: The solution stability of CV-8972 was evaluated in multiple media currently used to simulate dissolution and stability conditions in the various sections of the GI tract. As CV-8972 will be subject to hydrolysis as it is dissolving in the GI tract, it will be important to understand these kinetics in terms of designing instant and controlled-release formulations. HPLC methods were used to perform these assessments.
In summary, there may be some protective effect of the components of the FaSSGF, FaSSIF, and FeSSIF, particularly when compared to stability in 0.1N HCl or bicarbonate or phosphate buffer at pH 6-8. On the positive side, the fastest decomposition rate still has a T1/2 of 1.5 hours which should provide enough residence time for release and absorption in the upper GI tract.

[8] = Phase 1 first-in-human study, multiple-dose MR part, safety and tolerability; format: in vivo
Procedure: as §1, §2, §3

[9] = 28-day dog study (nonclinical toxicology, NOAEL); format: in vivo; settings: for AUC(0-t): po, 200 mg/kg/day
Procedure: Based on the nonclinical toxicology data, it was considered that subjects in this clinical study were not at unreasonable risk of adverse effects. […] For a 60-kg individual, the NOAEL dose would be 6480 mg. With a 10-fold safety factor applied, this would allow for a maximum recommended starting dose (MRSD) of 648 mg/day. 7,8 The planned starting dose in the current Phase 1 study was 50 mg, equivalent to 0.83 mg/kg/day for a 60-kg subject. This starting dose is less than 10% of the MRSD determined from the dog NOAEL and less than 1% of the dog NOAEL
The relevant animal study was the 28-day dog study where the NOAEL for IMB-1018972 was 200 mg/kg/day.

[10] = in vitro stability in biological media across species; format: in vitro ADME
Description: Additional and extensive in vitro stability work has been carried out across species to evaluate the impact of GI tract, liver tissues, and plasma on half-life as measured by in vitro clearance of CV-8972 in various biological media.

clinical = settings: human, in vivo; for AUC0-t higher after the 8-hour MR formulation than after the 4-hour MR formulation / AUC0-t lower after the 8-hour MR formulation than after the 4-hour MR formulation / Tmax: po
Description: The blood samples were taken via an indwelling intravenous catheter or by direct venipuncture.
The effect of food on the relative oral bioavailability of IMB-1018972 following a single oral administration was explored. This occurred in the single-dose MR part where subjects received the same dose, first under fasted conditions and then under fed conditions.

[11] = human, in vivo, 150 mg
Description: as §4

## COc1ccc(CN2CCN(CCOC(=O)c3cccnc3)CC2)c(OC)c1OC [CV-8972, 2-[4-[(2,3,4-trimethoxyphenyl)methyl]piperazin-1-yl]ethyl pyridine-3-carboxylate]
[1]
  Papp: ~29 ×10⁻⁶ cm/s
CaCo2
  efflux: little evidence of efflux
[2]; 1 mg/mL solution
  optimal pH for solution stability: 5-5.1
[2]; pH 2.74, Water
  1st order Kobs: 0.00516 h⁻¹
  % lost in 25 hrs: 12.1%
  Amt. remaining: 0.879 mg/mL
  T5%: 9.9 h
  T10%: 20.4 h
[2]; pH 3.52, 20 mM Phos
  1st order Kobs: 0.00273 h⁻¹
  % lost in 25 hrs: 6.6%
  Amt. remaining: 0.934 mg/mL
  T5%: 18.8 h
  T10%: 38.6 h
[2]; pH 5.05, 20 mM Am. Acetate
  1st order Kobs: 0.00105 h⁻¹
  % lost in 25 hrs: 2.6%
  Amt. remaining: 0.974 mg/mL
  T5%: 48.7 h
  T10%: 100.0 h
[2]; pH 5.64, 20 mM Phos
  1st order Kobs: 0.00248 h⁻¹
  % lost in 25 hrs: 6.0%
  Amt. remaining: 0.94 mg/mL
  T5%: 20.7 h
  T10%: 42.6 h
[2]; pH 6.5, 20 mM Phos
  1st order Kobs: 0.01119 h⁻¹
  % lost in 25 hrs: 24.4%
  Amt. remaining: 0.756 mg/mL
  T5%: 4.6 h
  T10%: 9.4 h
[2]; pH 6.88, 20 mM Phos
  1st order Kobs: 0.02064 h⁻¹
  % lost in 25 hrs: 40.3%
  Amt. remaining: 0.597 mg/mL
  T5%: 2.5 h
  T10%: 5.1 h
[3]
  TEAEs of flushing: No TEAEs of flushing were reported
  difference between fasted and fed administration for the number and incidence of TEAEs: no clear difference
  dose or dissolution time dependency of the number and incidence of TEAEs: no apparent dose or dissolution time dependency
  number of TEAEs considered not related to the study drug: 30
  number of TEAEs considered related to the study drug: 7
  number of TEAEs, SOC Gastrointestinal disorders: 5
  number of TEAEs, SOC General disorders and administration site conditions: 11
  number of TEAEs, SOC Nervous system disorders: 8
  number of drug-related TEAEs of ALT increased: 1
  number of drug-related TEAEs of headache: 1
  number of drug-related TEAEs of pollakiuria: 5
  severe TEAEs: No severe TEAEs were reported
  subjects n (%) with drug-related pollakiuria: 2 (16.7%)
  subjects n (%), SOC Gastrointestinal disorders: 4 (33.3%)
  subjects n (%), SOC General disorders and administration site conditions: 7 (58.3%)
  subjects n (%), SOC Nervous system disorders: 7 (58.3%)
[3]; all treatments
  total number of TEAEs: 37
[4]
  hemodynamic changes and changes in the QTc-interval: no findings of hemodynamic changes, nor changes in the QTc-interval
[5]; free base, read-out: saturated base solubility / minimal solubility as the free base
  solubility: 5000 to 10000 µg/mL (≈ 12 to 24.1 mM)
[5]; salt, read-out: solubility as the salt
  solubility: > 100000 µg/mL
[6]
  IMB-1018972 in plasma samples: could be measured in only few plasma samples
[7]; 0.1 M HCl, pH 1.0, no surfactants
  Est Kobs (first order rate constant for hydrolysis): 0.221 h⁻¹
[7]; BiCarb adj (0.1 M HCl neutralized with sodium bicarbonate), pH 6-8.2, no surfactants
  Est Kobs (first order rate constant for hydrolysis): 0.456 h⁻¹
[7]; FaSSGF, pH 1.6
  Est Kobs (first order rate constant for hydrolysis): 0.0143 h⁻¹
[7]; FaSSIF, pH 6.5
  Est Kobs (first order rate constant for hydrolysis): 0.05124 h⁻¹
[7]; FeSSIF, pH 5.8
  Est Kobs (first order rate constant for hydrolysis): 0.00696 h⁻¹
[7]; bicarbonate-adjusted medium (BiCarb adj), BiCarb adj, pH 6-8.2 (fastest decomposition rate)
  half-life at 0.2 mg/mL: 1.5 h
[8]
  number of TEAEs considered not related to the study drug: 30
  number of TEAEs considered related to the study drug: 10
  number of TEAEs, SOC Gastrointestinal disorders: 9
  number of TEAEs, SOC General disorders and administration site conditions: 4
  number of TEAEs, SOC Musculoskeletal and connective tissue disorders: 4
  number of TEAEs, SOC Nervous system disorders: 9
  number of TEAEs, SOC Renal and urinary disorders (pollakiuria): 4
  number of drug-related TEAEs of pollakiuria: 4
  number of drug-related TEAEs, Nervous system disorders: 2
  severity of TEAEs: All TEAEs were of mild severity
  subjects n (%) with drug-related Nervous system disorders: 2 (16.7%)
  subjects n (%) with drug-related pollakiuria: 4 (33.3%)
  subjects n (%), SOC Gastrointestinal disorders: 5 (41.7%)
  subjects n (%), SOC General disorders and administration site conditions: 4 (33.3%)
  subjects n (%), SOC Musculoskeletal and connective tissue disorders: 4 (33.3%)
  subjects n (%), SOC Nervous system disorders: 7 (58.3%)
  subjects n (%), SOC Renal and urinary disorders (pollakiuria): 4 (33.3%)
  total number of TEAEs: 40
[8]; mild severity
  subjects reporting flushing: 2 (16.7%)
[8]; mild severity, drug-related
  number of TEAEs of flushing: 2
[9]; dog, in vivo
  NOAEL at 28 days: 108 mg/kg/day
[9]; dog, in vivo, 28 days
  maximum recommended starting dose (MRSD): 648 mg/day
[9]; from HED
  NOAEL dose for a 60-kg individual: 6480 mg
[9]; in vivo, 28-day dog, oral, read-out: no observed adverse effect level (NOAEL)
  NOAEL at 28 days: 200 mg/kg/day
[10]
  stability in GI tract, liver tissues and plasma (in vitro clearance): relatively unstable in the GI tract

## COc1ccc(CN2CCNCC2)c(OC)c1OC [trimetazidine, reference compound]
clinical
  half-life: 8.11 to 9.35 h
  AUC0-t higher after the 8-hour MR formulation than after the 4-hour MR formulation: 4%
  AUC0-t lower after the 8-hour MR formulation than after the 4-hour MR formulation: 12%
clinical; 50 mg
  Tmax: 8 h
clinical; 200 mg
  Tmax: 5 h
[9]; female, dog, in vivo
  AUC(0-t): 13.8 µg·h/mL
[9]; male, dog, in vivo
  AUC(0-t): 15 µg·h/mL

## COc1ccc(CN2CCN(CCO)CC2)c(OC)c1OC [CV-8814, 2-[4-[(2,3,4-trimethoxyphenyl)methyl]piperazin-1-yl]ethanol]
clinical
  half-life: 3.35 to 4.27 h
  AUC0-t higher after the 8-hour MR formulation than after the 4-hour MR formulation: 6%
  AUC0-t lower after the 8-hour MR formulation than after the 4-hour MR formulation: 26%
clinical; 200 mg
  Cmax higher under fed conditions relative to fasted conditions: approximately 42%
  Tmax: 2 h
[11]
  Cmax lower under fed conditions relative to fasted conditions: approximately 36%
[9]; female, dog, in vivo
  AUC(0-t): 653 µg·h/mL
[9]; male, dog, in vivo
  AUC(0-t): 418 µg·h/mL
